# Measured values reported in patent US11925632B2, “Isoquinoline derivatives for use in treating GLUT1 deficiency syndrome” (GLIAPHARM SA, priority 2019, dated 2024).
# Assays:
# primary astrocytes = experiment: Intracellular glycogen quantification; type: cell-based, mouse; details: 10 μM, 3 h, vs vehicle
# Protocol: Primary cultures of cerebrocortical astrocytes were obtained from 1 to 2-day-old OF1 mouse pups (Charles River). Briefly, cortices were isolated and minced in small pieces under a dissecting microscope. The cells were incubated for 30 min at 37° C. in a solution containing 20 U/ml papain, 1 mM L-cysteine and 10 kU/ml DNase I. After dissociation, papain activity was stopped by the addition of fetal calf serum (FCS). Single-cell suspension was then obtained by mechanical dissociation, which consisted in cells trituration in a DMEM D7777 medium supplemented with 44 mm NaHCO3, 10 ml/L antibiotic/antimycotic solution and 10% FCS. […]
# Astrocytes grown on 12-well plates were used for intracellular glycogen quantifications. […]
# First, the amount of proteins in each sample was quantified to assess whether harvested astrocytes from primary cell cultures yielded enough and equivalent amounts of proteins on each replicates. Proteins were quantified using the micro BCA Protein Assay kit (Thermo Scientific), according to manufacturer's instructions. Next, intracellular glycogen concentrations were quantified using a 250 μl-aliquot of the same stimulated, thawed, and sonicated cell lysate. […] Fluorescence intensity (340 nm excitation/440 nm emission) was measured using a Safire 2 spectrophotometer. […]
# C57Bl/6 wild-type mice = experiment: Long-term memory test, inhibitory avoidance (IA); type: in vivo, mouse
# Protocol: For pharmacodynamics (FIG. 5) and cognition (FIG. 7) experiments, adult male C57Bl/6J wild-type mice weighting 18-28 g (8 weeks of age) were used (Charles River). For ALS mouse models (FIG. 6), G93A SOD1 transgenic male and female mice on B6.SJL1-Gur/J background were used (Jackson Laboratory).
# Animals were housed in groups of 3-5 in polypropylene cages (30×40×15 cm) with wire mesh top in a temperature (22±2° C.) and humidity (55±15%) controlled environment on a 12 hour light cycle (07.00-19.00 h lights on), except after surgeries when animal were housed individually. The samples (Vehicle or compounds of the invention) were administered per os (gavage) in a solution made of water supplemented with 0.4% hydroxypropyl methylcellulose (HPMC) Methocel 4KM (w/v) and 0.25% Tween-20 (v/v), as previously described (Thackaberry et al., 2010, Toxicol Sci., 117(2):485-92). Concentrations of the compounds tested ranged from 10 to 100 mg/kg.
# IA test is a well-established memory paradigm in rodents that measures contextual memory associated with a mild electrical footshock in a specific context (the dark compartment of the IA chamber). Groups of 8-week old C57Bl/6 wild-type female mice were tested. Each mouse was handled for 5 minutes per day for at least 4 consecutive days to reduce animal's stress due to experimenter's presence/manipulation during test days. Inhibitory avoidance was carried out in an IA chamber (MedAssociates) that consists in a rectangular Perspex box divided into a safe and a shock compartment separated by an automatically operated sliding door. […] Memory retention was measured at 24 h or 3 weeks after training by placing the mouse back into the lit compartment and recording its latency (in seconds) to enter the dark compartment. […]
# Memory was measured after oral administration of vehicle or compound (1) (100 mg/kg) to young adult male mice orally, and 20 min later a training for IA (FIG. 7). 24 hours and 3 weeks after training, latencies of mice to enter back into the dark compartment of the IA chamber, the place where they received the shock, were measured.
# [1] = single dose 100 mg/kg oral before training, vs vehicle
compound,measurement,setting,value
"COc1cc2ccnc(Nc3ccc(OC(F)(F)F)cc3)c2cc1OC [Example 1, 6,7-dimethoxy-N-(4-(trifluoromethoxy)phenyl)isoquinolin-1-amine]",Intracellular glycogen levels,primary astrocytes,significantly enhances the degradation of intracellular glycogen
same,Latency to enter the dark compartment at training,"C57Bl/6 wild-type mice; 100 mg/kg oral, 20 min before training",same latencies at training
same,"Latency to enter the dark compartment, 3 weeks after training",C57Bl/6 wild-type mice; [1],significantly higher
same,"Latency to enter the dark compartment, 24 h after training",C57Bl/6 wild-type mice; [1],significantly higher
